Source: US20110124683A1, “Use of CRTH2 Antagonist Compounds” (Oxagen Limited, priority 2007, published 2011)

What was measured:
[1] = system: human subjects with allergic rhinitis; experiment: Vienna Challenge Chamber study (allergen challenge, symptom scores); type: in vivo; conditions: for reduction in total nasal symptom score compared to placebo / reduction in total eye symptom score compared to placebo: oral, both patient groups combined; for reduction in total nasal symptom score compared to placebo: FIG. 1A; for reduction in total eye symptom score compared to placebo: FIG. 1B
Excerpt: The study was a randomised, double blind, placebo controlled, two way crossover evaluation of Compound 1, given orally for eight days. There was a screening period of one week and a washout period of three weeks between the two treatment periods. There was a follow up one week after the last dose of study drug. The group of patients who received the study drug for the first treatment period and placebo for the second was designated group A, while the group of patients who received placebo for the first treatment period and the study drug for the second treatment period was designated group B.
The subjects underwent a complete screening assessment to determine a baseline response to allergens. This screening assessment took place one week prior to the start of dosing. • Subjects commenced dosing with Compound 1 or placebo on Day 1 (visit 2 or visit 5) of each treatment period of the study. […] Subjects took each dose (2 capsules in the morning and 2 capsules in the evening) as soon as they had finished breakfast and their evening meal respectively.
Subjects reported back to the clinic on Day 2 of each treatment period for a 6 hour allergen challenge. The following measurements were obtained: • Total nasal symptom score (TNSS) (obstruction, rhinorrhoea, itch, sneeze) with each symptom scored on a categorical scale from 0 to 3 pre-challenge, every 15 mins from 0 to 6 h post-start of challenge • Eye symptom score (watery eyes, itchy eyes, red eyes) with each symptom scored on a categorical scale from 0 to 3 pre-challenge, every 15 mins from 0 to 6 h post-start of challenge • Other symptoms (cough, itchy throat, itchy ears) with each symptom scored on a categorical scale from 0 to 3 pre-challenge and every 15 mins from 0 to 6 h post-start of challenge
Subjects reported back to the clinic on Day 8 of each treatment period for a 6 hour allergen challenge and the measurements obtained on Day 2 were repeated.
A final follow-up visit was conducted one after the last dose of test article in Treatment Period 2.

serum IgE = experiment: Measurement of serum IgE in mild to moderate asthmatics; type: in vivo, human
Excerpt: The effect of the CRTH2 antagonist Compound 1 compared to placebo was studied in mild to moderate asthmatics with an FEV1 of 60-80% of predicted and requiring only short acting inhaled β2-adrenergic agonists for symptomatic control.
Blood was collected for measurement of serum IgE at the beginning of the study and after 4 weeks of dosing with Compound 1 or placebo. Total serum IgE was quantified using fluorescent immunoassay using the Phadia CAP system.

Human Th2 cells = experiment: Apoptosis challenge test (Annexin V-PE/PI flow cytometry); type: cell-based; conditions: for IC50: Homo sapiens, 100 nM PGD2, absence of IL-2, 16 hrs, read-out: IC50 to the rescuing function of PGD2
Description: Human Th2 cells were treated with 50 U/ml IL-2 or various concentrations of PGD2 in the absence of IL-2 for 16 hrs. The cells were stained with Annexin V-PE/PI and then analysed by FACSArray flow cytometer.
Human Th2 cells were treated in the absence of IL-2 with a medium containing 100 nM PGD2 and various concentrations of CRTH2 antagonistic compounds (Compounds 1, 2, 3, 4 and 5) for 16 hrs. The cells were stained with Annexin V-PE/PI and then analysed by FACSArray flow cytometer.

CRTH2 receptor = target: T1, CRTH2 receptor (Homo sapiens, UniProt Q9Y5Y4); experiment: Calcium mobilisation assay in CHO/CRTH2 cells; type: cell-based; conditions: n=3, read-out: EC50, increase in intracellular Ca2+ mobilisation
T1 construct: expressed in transfected cells; host or cells: Chinese Hamster Ovary (CHO) cells
T1 sequence (Q9Y5Y4 1-395): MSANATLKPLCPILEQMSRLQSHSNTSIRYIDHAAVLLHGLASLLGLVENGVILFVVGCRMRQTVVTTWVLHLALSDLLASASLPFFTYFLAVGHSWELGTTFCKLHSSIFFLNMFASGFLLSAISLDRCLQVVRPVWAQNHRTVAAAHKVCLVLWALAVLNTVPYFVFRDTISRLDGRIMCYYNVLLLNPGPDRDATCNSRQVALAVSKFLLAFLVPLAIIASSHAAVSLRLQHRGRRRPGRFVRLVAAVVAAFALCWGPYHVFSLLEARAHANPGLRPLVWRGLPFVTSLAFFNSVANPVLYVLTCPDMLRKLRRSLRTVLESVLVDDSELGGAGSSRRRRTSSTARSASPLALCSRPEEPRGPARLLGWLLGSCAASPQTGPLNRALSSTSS
Description: Chinese Hamster Ovary cells were transfected with CRTH2 receptors (CHO/CRTH2) and were maintained in culture in a humidified atmosphere at 37° C. (5% CO2) in Minimum Essential Medium (MEM) supplemented with 10% foetal bovine serum, 2 mM glutamine, and 1 mg ml^−1 active G418. The cells were passaged every 2-3 days. For radioligand binding assay, cells were prepared in triple-layer flasks or in 175 cm^2 square flasks (for membrane preparation). For calcium mobilisation assay, cells were grown in a 96 well plate 24 h prior to the assay at a density of 80,000 cells per well.
Cells were seeded onto poly-D-lysine coated 96-well plates at a density of 80,000 cells per well and incubated at 37° C. overnight to allow the cells to adhere. Cells were washed twice with HBSS and incubated for 1 h at 37° C. in 100 μl HBSS and 100 μl calcium-3-dye (Molecular Devices), supplemented with 4 mM probenecid. Changes in fluorescence were monitored over a 50 s time course with agonist addition at 17 s using a Flexstation (Molecular Devices).

Cc1c(Cc2ccc3ccccc3n2)c2cc(F)ccc2n1CC(=O)O [Compound 1, (5-Fluoro-2-methyl-3-quinolin-2-ylmethyl-indol-1-yl)-acetic acid]
duration of effect on nasal symptom score after the last treatment ([1]; Group A, on placebo after 8 days of drug and three week washout): more than 4 weeks
reduction in total nasal symptom score compared to placebo ([1]; after 2 days of dosing): 23%
reduction in total eye symptom score compared to placebo ([1]; after 2 days of dosing): 45%
reduction in total nasal symptom score compared to placebo ([1]; after 8 days of dosing): 37%
reduction in total eye symptom score compared to placebo ([1]; after 8 days of dosing): 61%
reduction in Total Nasal Symptom Score (0-6 hr) ([1]; remaining 22 days after the last dose): 36%
reduction in Total Nasal Symptom Score (0-6 hr) ([1]; remaining 28 days after the last dose): 38%
median reduction in IgE at endpoint (serum IgE; after 4 weeks of dosing, p=0.033 vs placebo, Wilcoxon test): −17.0 IU/mL
reduction in serum IgE (serum IgE; after treatment for 4 weeks, FIG. 3): 41%
IC50 (Human Th2 cells): < 100 nM

Cc1c(Cc2ccccc2S(=O)(=O)c2ccccc2)c2cc(F)ccc2n1CC(=O)O [Compound 2, (3-{[2-(Benzenesulfonyl)phenyl]methyl}-5-fluoro-2-methylindol-1-yl)-acetic acid]
IC50 (Human Th2 cells): < 100 nM

Cc1c(Cc2cc3ccccc3cc2S(C)(=O)=O)c2cc(F)ccc2n1CC(=O)O [Compound 3, {5-Fluoro-3-[(3-methanesulfonylnaphthalen-2-yl)methyl]-2-methylindol-1-yl}-acetic acid]
IC50 (Human Th2 cells): < 100 nM

Cc1c(Cc2cccnc2S(=O)(=O)c2ccccc2)c2cc(F)ccc2n1CC(=O)O [Compound 4, (3-{[2-(Benzenesulfonyl)pyridin-3-yl]methyl}-5-fluoro-2-methylindol-1-yl)-acetic acid]
IC50 (Human Th2 cells): < 100 nM

CCCCC[C@H](O)/C=C/[C@H]1C(=O)C[C@H](O)[C@@H]1C/C=C\CCCC(=O)O [PGD2, prostaglandin D2, reference compound]
effect on apoptosis of Th2 cells (Human Th2 cells; absence of IL-2, 16 hrs): anti-apoptotic effect
EC50 (CRTH2 receptor): 2.4 ± 0.5 nM

Cc1c(S(=O)(=O)c2ccc(Cl)cc2)c2cc(F)ccc2n1CC(=O)O [[5-Fluoro-3-(4-chloro-benzenesulfonyl)-2-methyl-indol-1-yl]-acetic acid, reference compound]
IC50 (Human Th2 cells): 204 ± 160 nM
